What was measured:
[1] = test system: human cervix carcinoma xenograft KB-3-1; test: Antitumor activity in human cervix carcinoma xenograft model (KB-3-1) in vivo; parameters: species or system nude mice; settings: for Tumor inhibition / Tumor weight: day 30; for Tumor weight: median
Description: Tumor bearing mice were randomized on day 8 after KB-3-1 tumor cell inoculation and were distributed to treatment groups of n=7 animals per group. Treatment was started on day 8. The animals were treated orally once daily for 5 consecutive days with 1 or 6. Dosages included 50 and 25% of the Maximum Tolerable Doses (MTD's). Control animals received the vehicle (water). On day 30, the primary tumors were explanted and the tumor weights were determined.

[2] = Oral bioavailability and pharmacokinetics in mice (plasma, mass spectroscopy); settings: for AUC(0-inf.) (calc.) / AUC(0-t) (obs.) / Cmax (obs.) / Tmax (obs.) / Vd / t½α / t½β: WFI; for Bioavailability F (AUC(0-inf.)): 30 mg/kg po vs iv
Description: Mice received 30 mg/kg of 1 or 6 intravenously or orally. For each time point blood of 3 mice has been collected, plasma prepared and the concentration of 1 or 6 has been determined by mass spectroscopy. […] Bioavailability and the area under the curve (Auc(0-t) [μg h/L]=AUC) have been determined.

[3] = 25% MTD, 100 mg/kg/day orally once daily for 5 days
[4] = 50% MTD, 200 mg/kg/day orally once daily for 5 days
[5] = 25% MTD, 100 mg/kg/day orally once daily for 5 days from day 8
[6] = 50% MTD, 200 mg/kg/day orally once daily for 5 days from day 8
[7] = mice, 30 mg/kg iv, experiment P06.0068
[8] = mice, 30 mg/kg po, experiment P06.0068
[9] = mice, 30 mg/kg po, experiment P06.0069
[10] = mice, 30 mg/kg iv, experiment P06.0069

CCCCCCCCCCCCSCC(COP(=O)(O)OC[C@H]1O[C@@H](n2cnc3c(N)nc(Cl)nc32)[C@@H](F)[C@@H]1O)OCCCCCCCCCC (stereo partly shown) [Compound 6]
Tumor inhibition [1, 3]: 31%
Tumor inhibition [1, 4]: 74%
Tumor weight [1, 5]: 1.91 g
Tumor weight [1, 6]: 0.73 g
AUC(0-inf.) (calc.) [2, 7]: 841.7 µg·h/mL
AUC(0-t) (obs.) [2, 7]: 823.424 µg·h/mL
Cmax (obs.) [2, 7]: 673387 ng/mL
Tmax (obs.) [2, 7]: 0.0 h
Vd [2, 7]: 0.26 L/kg
t½α [2, 7]: 0.4 h
t½β [2, 7]: 5.1 h
AUC after oral application ([2]; mice, 30 mg/kg orally, AUC(0-t)): 213 µg·h/mL
Bioavailability F (AUC(0-inf.)) ([2]; mice, experiment P06.0068): 28.5%
AUC(0-inf.) (calc.) [2, 8]: 239.878 µg·h/mL
AUC(0-t) (obs.) [2, 8]: 236.496 µg·h/mL
Cmax (obs.) [2, 8]: 19517 ng/mL
Tmax (obs.) [2, 8]: 4.0 h
Vd [2, 8]: 1.30 L/kg
t½α [2, 8]: 0.5 h
t½β [2, 8]: 7.2 h
AUC(0-inf.) (calc.) [2, 9]: 225.914 µg·h/mL
AUC(0-t) (obs.) [2, 9]: 212.685 µg·h/mL
Cmax (obs.) [2, 9]: 23571 ng/mL
Tmax (obs.) [2, 9]: 3.0 h
Vd [2, 9]: 1.10 L/kg
t½α [2, 9]: 0.9 h
t½β [2, 9]: 5.7 h

[2-Chloro-9-(2′-deoxy-2′-fluoro-β-D-arabinofuranosyl)adenine]-5′-phosphoric acid-(2-decyloxy-3-dodecyloxy)propyl ester [Compound 1]
AUC(0-inf.) (calc.) [2, 10]: 320.025 µg·h/mL
AUC(0-t) (obs.) [2, 10]: 315.695 µg·h/mL
Cmax (obs.) [2, 10]: 486156 ng/mL
Tmax (obs.) [2, 10]: 0.02 h
Bioavailability F (AUC(0-inf.)) ([2]; mice, experiment P06.0069): 28.5%
AUC(0-inf.) (calc.) [2, 9]: 91.31 µg·h/mL
AUC(0-t) (obs.) [2, 9]: 88.927 µg·h/mL
Cmax (obs.) [2, 9]: 13256 ng/mL
Tmax (obs.) [2, 9]: 2.0 h

CCCCCCCCCCCCOCC(COP(=O)(O)OC[C@H]1O[C@@H](n2cnc3c(N)nc(Cl)nc32)C(F)[C@H]1O)OCCCCCCCCCC (stereo partly drawn) [Compound 1, [2-Chloro-9-(2′-deoxy-2′-fluoro-β-D-arabinofuranosyl)adenine]-5′-phosphoric acid-(2-decyloxy-3-dodecyloxy)propyl ester]
Tumor size versus control animals ([1]; 18 days after termination of treatment (day 30)): significantly (p<0.01) smaller tumors than control animals
Tumor inhibition [1, 3]: 43%
Tumor inhibition [1, 4]: 93%
Tumor weight [1, 5]: 1.60 g
Tumor weight [1, 6]: 0.19 g
Bioavailability F (AUC(0-inf.)) ([2]; mice, experiment P06.0069): 28.5%
AUC ([2]; mouse, plasma, po, 30 mg/kg): 88.9 µg·h/mL

From US20100249055A1, “CLOFARABINE PHOSPHOLIPID DERIVATIVES” (HEIDELBERG PHARMA AG, priority 2007, published 2010)
